Test results reported in patent US12643871B2, “Aryl formamide compound containing chiral sulfur oxide or salt thereof, preparation method, herbicidal composition and use thereof” (Qingdao Kingagroot Chemical Compound Co., Ltd., priority 2019, dated 2026).

What was measured:
Assay in all cases: Weeding effect in post-emergence stage
Type in all cases: in vivo
Settings in all cases: 250 g/ha; 2 leaf stage; 15 days after application; fresh weight control rate
Amaranthus retroflexus = tested on: Amaranthus retroflexus
In short: (§1)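 Two-leaf-stage pot plants, spray-tower application at 500/250/125/60/30/15 g/ha with methyl oleate EC synergist; fresh weight control level (0–5) read at 15 days post-treatment, three replicates averaged.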

Echinochloa crusgali = tested on: Echinochloa crusgali
In short: as §1

Digitaria sanguinalis = tested on: Digitaria sanguinalis
In short: as §1

| SMILES | weeding effect in post-emergence stage, activity level (growth control rate), Amaranthus retroflexus (Amaranthus retroflexus) | weeding effect in post-emergence stage, activity level (growth control rate), Echinochloa crusgali (Echinochloa crusgali) | weeding effect in post-emergence stage, activity level (growth control rate), Digitaria sanguinalis (Digitaria sanguinalis) |
| --- | --- | --- | --- |
| Cc1c(C(=O)Nc2nnnn2C)ccc(S(C)(=O)=O)c1[S@+]([O-])CC(=O)N(C)C [Compound 606] | 5 (Level 5: growth control rate is above 85%) | 5 (Level 5: growth control rate is above 85%) | 5 (Level 5: growth control rate is above 85%) |
| Cc1c(C(=O)Nc2nnnn2C)ccc(S(C)(=O)=O)c1[S@+]([O-])CCO [Compound 607] | 5 (Level 5: growth control rate is above 85%) | 5 (Level 5: growth control rate is above 85%) | 5 (Level 5: growth control rate is above 85%) |
| Cc1c(C(=O)Nc2nnnn2C)ccc(S(C)(=O)=O)c1[S@+]([O-])CCC#N [Compound 608] | 5 (Level 5: growth control rate is above 85%) | 5 (Level 5: growth control rate is above 85%) | 5 (Level 5: growth control rate is above 85%) |
| CC(=O)C[S@@+]([O-])c1c(S(C)(=O)=O)ccc(C(=O)Nc2nnnn2C)c1C [Compound 609] | 5 (Level 5: growth control rate is above 85%) | 5 (Level 5: growth control rate is above 85%) | 5 (Level 5: growth control rate is above 85%) |
| Cc1nnc(NC(=O)c2ccc(S(C)(=O)=O)c([S@+]([O-])CCC#N)c2C)o1 [Compound 610] | 5 (Level 5: growth control rate is above 85%) | 5 (Level 5: growth control rate is above 85%) | 5 (Level 5: growth control rate is above 85%) |
| CC(=O)C[S@@+]([O-])c1c(S(C)(=O)=O)ccc(C(=O)Nc2nnc(C)o2)c1C [Compound 611] | 5 (Level 5: growth control rate is above 85%) | 5 (Level 5: growth control rate is above 85%) | 5 (Level 5: growth control rate is above 85%) |
| CCOCCn1nnnc1NC(=O)c1ccc(S(C)(=O)=O)c([S@+]([O-])CC)c1C [Compound 612] | 5 (Level 5: growth control rate is above 85%) | 5 (Level 5: growth control rate is above 85%) | 5 (Level 5: growth control rate is above 85%) |
| C=CCC[S@@+]([O-])c1c(S(C)(=O)=O)ccc(C(=O)Nc2nnnn2C)c1C [Compound 619] | 5 (Level 5: growth control rate is above 85%) | 5 (Level 5: growth control rate is above 85%) | 5 (Level 5: growth control rate is above 85%) |
| Cc1c(C(=O)Nc2nnnn2C)ccc(S(C)(=O)=O)c1[S@+]([O-])CC(C)O (stereo partly drawn) [Compound 620] | 5 (Level 5: growth control rate is above 85%) | 5 (Level 5: growth control rate is above 85%) | 5 (Level 5: growth control rate is above 85%) |
